Data as given in patent US10722518B2, “Oxazine derivative for use in the treatment or prevention of cerebral amyloid angiopathy” (Novartis AG, priority 2016, dated 2020).

Test system: Aβ40 in CSF
Experiment: 3-month dose-ranging study: Aβ40 in CSF
Format: in vivo
Details: first-in-human and 3-month studies
Description: This study is listed in ClinicalTrials.gov under the NCT02576639 Identifier code.
The primary purpose of this study was to expand on previous safety and tolerability data obtained over 2-week and 4-week duration in the first in human study and thereby allow initiation of future long-term efficacy trials in subjects at risk of AD and CAA. In addition, data relevant for Pharmacokinetic/Pharmacodynamic modeling was obtained in order to support dose selection decisions for future efficacy studies.
The extent of Aβ lowering was stable over time with PD steady-state being reached after approximately 2-3 weeks.
In the completed first-in-human and 3-month dose-ranging safety and tolerability clinical studies described in Examples 3 and 4, Aβ concentrations in CSF were obtained by means of lumbar punctures before the first dose (baseline) and respectively after 2 weeks and 3 months of multiple dosing. ApoE4 genotype also was obtained in the subjects who consented. The percent change from baseline in Aβ40 and Aβ42 concentrations was calculated in subjects who took the study treatment and had no major protocol deviation with potential impact on the evaluation of the pharmacodynamic effect. Tables 13 to 16 below provide summary statistics of the percent change from baseline by treatment group and ApoE genotype (E4 heterozygotes versus E4 non-carriers). […]

Structure (SMILES): C[C@@]1(c2nc(NC(=O)c3ncc(C(F)(F)F)cc3Cl)ccc2F)CO[C@@](C)(C(F)(F)F)C(N)=N1 [Compound 1, N-(6-((3R,6R)-5-amino-3,6-dimethyl-6-(trifluoromethyl)-3,6-dihydro-2H-1,4-oxazin-3-yl)-5-fluoropyridin-2-yl)-3-chloro-5-(trifluoromethyl)picolinamide]
- CSF Aβ40 and Aβ42 response to treatment, ApoE4 carriers vs non-carriers: no difference
